The values that follow come from patent US8367692B2, “Spiro (piperidine-4,2′-pyrrolidine)-1-(3,5-trifluoromethyl phenyl) methylcarboxamides as NK1 tachikynin receptor antagonists” (Glaxo Wellcome Manufacturing Pte Ltd, priority 2008, dated 2013).

For test [1], the target named is T1, human NK1 receptor (Homo sapiens, UniProt P25103).
T1 construct: expressed in transfected cells; host or cells: human U2OS cells transiently transduced with recombinant BacMam virus
Nature of the test: NK1 functional assay (B), FLIPR inhibition of intracellular calcium release induced by Substance P. Type of test: cell-based. As to conditions: U2OS cells transduced with BacMam virus expressing human NK1; ligand Substance P; read-out: binding potency pKi in the NK1 functional assay (B) (converted). The text has this:
B) Measurement of NK Functional Potency:
Compounds of the invention were further characterised in a functional assay using FLIPR technology for the determination of their effect to inhibit the intracellular calcium release induced by interaction of NK receptors with its perspective ligands. Human U2OS cells transiently transduced with recombinant BacMam virus expressing human NK1, NK2 and NK3 receptors were used in the studies (see J. P. Condreay et al, Proc. Natl. Acad. Sci. USA 1999, 96(1): 127-132). Briefly, U20S cells were harvested from tissue culture flasks, re-suspended to a cell density of 200-300K/ml and mixed with recombinant BacMam virus carrying NKR gene in a virus/cell ratio of 1% (v/v). 10K-15K cells/well were then seeded in 384-well Greiner bio-one plate in culture medium (DMEM with 10% FBS), incubated overnight in 5% CO2 at 37° C. […] Finally, 10 uL/well of NKR ligands in assay buffer containing 0.1% BSA was added to the cells and fluorescence signal read on a FLIPR system. […] IC50 values of each compound were determined by an 11-point 3×-dilution inhibition curve. The potency each antagonist (fpKi) was calculated from plC50 by the Cheng-Prusoff equation using EC50 of ligand determined in a separate experiment.
In general terms: Calcium assays in cells follow changes in intracellular calcium, usually with a dye or a luminescent sensor.

For test [2], the target named is T2, NK1 receptor (Meriones unguiculatus, UniProt Q5DUB1).
T2 construct: from tissue; host or cells: living gerbil, central nervous system (icv agonist challenge)
Nature of the test: Gerbil foot tapping model (GR73632-induced, icv). Format: in vivo. The text has this:
The ability of the compounds of the invention to penetrate the central nervous system and to bind at the NK1 receptor may be determined using the gerbil foot tapping model as described by Rupniak & Williams, Eur. Jour. of Pharmacol., 1994.
Intracerebroventricular (icv) administration of the NK1 receptor agonist GR73632 (R. M. Hagan et al., Neuropeptides 1991, 19 (2), 127-135) a characteristic hind leg foot tapping (GFT) response in gerbils which can be inhibited by potent NK1 receptor antagonists. The gerbil foot tapping paradigm was carried out as follows; gerbils were dosed with compound of the invention, and following an appropriate pre-treatment time were anaesthetised using isofluorane/oxygen mixture. The skull was then exposed and 5 ul of GR73632 (3 pmol conc.) was injected by insertion of a cuffed 25G needle to a depth of 4 mm below bregma, directly into the lateral ventricle (intracerebroventricular dosing). Immediately following the injection, gerbils were placed individually into a clear observation box to recover.
Upon the gerbil regaining its righting reflex, the duration of repetitive hind foot tapping was recorded over a 5 minute period. The dose of the test compound required to inhibit by 50% the tapping induced by the NK1 agonist expressed as mg/kg is referred to as the ID50 values.

T2 sequence (Q5DUB1 whole entry): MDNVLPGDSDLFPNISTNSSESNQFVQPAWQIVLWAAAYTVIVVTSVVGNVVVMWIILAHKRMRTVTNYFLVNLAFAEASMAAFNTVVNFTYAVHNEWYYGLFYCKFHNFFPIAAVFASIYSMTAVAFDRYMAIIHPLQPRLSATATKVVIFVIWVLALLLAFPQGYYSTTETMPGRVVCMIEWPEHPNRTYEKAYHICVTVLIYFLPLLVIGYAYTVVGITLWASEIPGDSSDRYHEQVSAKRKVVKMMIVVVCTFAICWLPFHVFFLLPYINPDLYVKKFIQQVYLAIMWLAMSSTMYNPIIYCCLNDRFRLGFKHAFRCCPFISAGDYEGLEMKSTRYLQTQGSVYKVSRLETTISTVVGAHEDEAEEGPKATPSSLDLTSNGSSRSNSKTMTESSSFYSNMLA
T1 sequence (P25103 whole entry): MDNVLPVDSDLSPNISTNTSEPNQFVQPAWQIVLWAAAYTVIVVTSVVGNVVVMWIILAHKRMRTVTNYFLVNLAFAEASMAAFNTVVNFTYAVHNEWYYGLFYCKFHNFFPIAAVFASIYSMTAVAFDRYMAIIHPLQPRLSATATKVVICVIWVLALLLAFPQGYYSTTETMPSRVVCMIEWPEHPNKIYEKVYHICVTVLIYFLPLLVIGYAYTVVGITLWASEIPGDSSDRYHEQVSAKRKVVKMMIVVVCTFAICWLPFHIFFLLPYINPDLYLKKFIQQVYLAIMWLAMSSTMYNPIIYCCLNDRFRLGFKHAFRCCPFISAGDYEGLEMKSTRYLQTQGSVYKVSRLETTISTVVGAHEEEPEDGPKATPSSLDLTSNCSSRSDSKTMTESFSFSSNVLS

Take `Cc1cc(F)ccc1[C@H]1C[C@@]2(CCC(C(N)=O)N2)CCN1C(=O)N(C)[C@H](C)c1cc(C(F)(F)F)cc(C(F)(F)F)c1` (single isomer, unassigned; diastereoisomer 1) [Example 1]: the Ki in test [1] was below 1 nM.

As for `Cc1cc(F)ccc1[C@H]1C[C@]2(CC[C@H](C(N)=O)N2)CCN1C(=O)N(C)[C@H](C)c1cc(C(F)(F)F)cc(C(F)(F)F)c1.Cl` [Example 4, (2R,5S,7R)—N^8-{(1R)-1-[3,5-bis(trifluoromethyl)phenyl]ethyl}-7-(4-fluoro-2-methylphenyl)-N^8-methyl-1,8-diazaspiro[4.5]decane-2,8-dicarboxamide hydrochloride], the “GR73632-induced Foot Tapping behaviour” value in test [2] (dose range of 0.1 to 10 mg/kg p.o.) is reported as “significantly attenuated”. Also, the ED50 in test [2] (po, read-out: ID50, dose required to inhibit by 50% the tapping induced by the NK1 agonist) was around 0.67 mg/kg.
